The target in test [1] is TYK2 (Homo sapiens (Human), UniProt P29597). Put plainly: Tyk2 radioactive kinase assay. The test is classed as biochemical. As to conditions: ATP 10 μM. As for the experimental part: (§1) Peptide substrate, [KKSRGDYMTMQIG], (20 μM) is prepared in reaction buffer (20 mM Hepes pH 7.5, 10 mM MgCl2, 1 mM EGTA, 0.02% Brij35, 0.02 mg/mL BSA, 0.1 mM […], 2 mM DTT, 1% DMSO. TYK2 (Invitrogen) kinase is added, followed by compounds in DMSO. ^33PATP is added to initiate the reaction with ATP at 10 μM. Kinase reaction is incubated for 120 min at room temp and reactions are spotted onto P81 ion exchange paper (Whatman #3698-915), and then washed extensively in 0.75% phosphoric acid, prior to reading the radioactivity counts. For JAK2 (Invitrogen) kinase assay the peptide substrate poly[Glu:Tyr] (4:1), 0.2 mg/ml is used, in the reaction carried out the same as for TYK2.
Sequence of TYK2 (P29597 whole entry): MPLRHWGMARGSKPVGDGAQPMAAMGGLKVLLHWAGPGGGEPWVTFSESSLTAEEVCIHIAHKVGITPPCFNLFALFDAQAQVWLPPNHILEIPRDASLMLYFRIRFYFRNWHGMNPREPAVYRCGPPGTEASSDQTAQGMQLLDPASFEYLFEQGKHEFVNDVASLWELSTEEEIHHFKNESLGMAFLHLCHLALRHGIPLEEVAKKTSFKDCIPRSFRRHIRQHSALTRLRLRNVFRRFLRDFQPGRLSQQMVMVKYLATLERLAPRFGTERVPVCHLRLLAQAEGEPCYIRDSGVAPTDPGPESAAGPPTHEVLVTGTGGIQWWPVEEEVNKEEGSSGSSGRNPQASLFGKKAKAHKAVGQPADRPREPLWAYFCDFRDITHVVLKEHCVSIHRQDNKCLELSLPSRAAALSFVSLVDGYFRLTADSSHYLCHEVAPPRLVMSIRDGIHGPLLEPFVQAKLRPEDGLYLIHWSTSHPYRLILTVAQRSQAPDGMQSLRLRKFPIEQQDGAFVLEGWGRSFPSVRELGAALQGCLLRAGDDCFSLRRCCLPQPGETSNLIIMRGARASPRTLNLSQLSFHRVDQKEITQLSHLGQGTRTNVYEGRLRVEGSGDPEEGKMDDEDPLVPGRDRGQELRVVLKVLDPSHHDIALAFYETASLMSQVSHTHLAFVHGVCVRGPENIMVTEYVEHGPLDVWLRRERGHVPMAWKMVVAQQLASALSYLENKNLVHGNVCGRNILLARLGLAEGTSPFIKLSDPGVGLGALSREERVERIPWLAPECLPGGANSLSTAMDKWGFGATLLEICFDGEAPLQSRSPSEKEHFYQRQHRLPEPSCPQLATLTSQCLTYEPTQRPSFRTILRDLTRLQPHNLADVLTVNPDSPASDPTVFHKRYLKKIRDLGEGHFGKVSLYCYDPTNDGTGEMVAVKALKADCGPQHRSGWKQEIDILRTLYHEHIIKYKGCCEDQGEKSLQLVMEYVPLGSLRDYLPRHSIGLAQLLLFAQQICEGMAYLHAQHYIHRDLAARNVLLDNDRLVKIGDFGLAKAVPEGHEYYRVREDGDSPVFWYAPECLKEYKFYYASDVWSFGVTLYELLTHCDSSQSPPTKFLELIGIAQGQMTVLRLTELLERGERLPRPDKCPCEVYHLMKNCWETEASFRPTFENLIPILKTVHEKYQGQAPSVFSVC

In test [2] the test system is JAK2-pSTAT5 (GM-CSF induced pSTAT5). Kind of test: GM-CSF induced pSTAT5 in human PBMC. The test is classed as cell-based. To be noted: 20 min, 5 ng/mL GM-CSF. As to the method: (§2) Human PBMC are isolated from buffy coat and are stored frozen for assays as needed. Cells for assay are thawed and resuspended in complete media containing serum, then cells are diluted to 1.67 E6 cells/ml so that 120 ul per well is 200,000 cells. 15 ul of compound or DMSO is added to the well at the desired concentrations and incubated at 1 hr at 37 C. 15 ul of stimulus (final concentration of 1.7 ng/mL IL-12) is added for 30 minutes prior to pSTAT4 and total STAT4 analysis using cell lysates prepared and analyzed by MSD reagents as per manufacturer protocol. The final DMSO concentration of compound in the assay is 0.1%.
Cells are prepared for analysis as in the above procedure and 15 ul of GM-CSF (final concentration 5 ng/mL) is added for 20 minutes prior to pSTAT5 and total STAT5 analysis using cell lysates prepared and analyzed by MSD reagents as per manufacturer protocol. The final DMSO concentration of compound in the assay is 0.1%.

In test [3] the target is JAK2 (Homo sapiens (Human), UniProt O60674). Put plainly: JAK2 radioactive kinase assay. To be noted: ATP 10 μM. Format: biochemical. As to the method: as §1
Sequence of JAK2 (O60674 whole entry): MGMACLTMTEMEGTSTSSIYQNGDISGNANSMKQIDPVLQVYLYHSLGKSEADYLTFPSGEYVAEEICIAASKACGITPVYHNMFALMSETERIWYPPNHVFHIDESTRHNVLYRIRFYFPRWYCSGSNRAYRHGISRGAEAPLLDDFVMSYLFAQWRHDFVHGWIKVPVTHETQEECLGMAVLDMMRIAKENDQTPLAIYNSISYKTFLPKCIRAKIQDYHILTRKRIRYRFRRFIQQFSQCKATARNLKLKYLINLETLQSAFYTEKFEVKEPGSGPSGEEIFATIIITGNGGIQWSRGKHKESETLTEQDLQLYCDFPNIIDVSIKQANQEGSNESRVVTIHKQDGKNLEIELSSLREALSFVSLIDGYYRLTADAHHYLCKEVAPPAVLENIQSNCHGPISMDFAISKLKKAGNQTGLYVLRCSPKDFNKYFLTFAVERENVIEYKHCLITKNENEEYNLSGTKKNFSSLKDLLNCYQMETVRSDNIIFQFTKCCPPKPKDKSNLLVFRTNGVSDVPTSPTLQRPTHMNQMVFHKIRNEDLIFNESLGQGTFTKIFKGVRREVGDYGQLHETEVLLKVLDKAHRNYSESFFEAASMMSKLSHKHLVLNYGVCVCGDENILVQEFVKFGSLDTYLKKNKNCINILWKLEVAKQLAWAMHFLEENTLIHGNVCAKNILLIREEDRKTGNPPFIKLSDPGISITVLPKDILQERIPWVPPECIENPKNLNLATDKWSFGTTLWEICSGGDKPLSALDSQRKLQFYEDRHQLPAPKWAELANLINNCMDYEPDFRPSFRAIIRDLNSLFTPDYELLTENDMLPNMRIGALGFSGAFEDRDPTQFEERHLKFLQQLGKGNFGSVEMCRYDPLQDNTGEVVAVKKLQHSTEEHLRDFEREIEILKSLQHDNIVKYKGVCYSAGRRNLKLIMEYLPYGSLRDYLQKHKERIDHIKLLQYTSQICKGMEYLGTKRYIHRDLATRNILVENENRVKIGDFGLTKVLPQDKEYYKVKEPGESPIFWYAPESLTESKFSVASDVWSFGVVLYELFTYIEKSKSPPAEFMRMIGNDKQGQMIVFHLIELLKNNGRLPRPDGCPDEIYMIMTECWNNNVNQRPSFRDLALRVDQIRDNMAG
Test [4] relates to Tyk2-pSTAT4 (IL-12 induced pSTAT4). Put plainly: IL-12 induced pSTAT4 in human PBMC. The test is classed as cell-based. To be noted: Homo sapiens, PBMC, 0.5 h, 1.7 ng/mL IL-12, 30 minutes. As to the method:
as §2

The source of these data is patent publication US10781204B2, “TYK2 inhibitors and uses thereof” (Nimbus Lakshmi, Inc., priority 2015, dated 2020).

Usually Ki stands for a dissociation constant, usually derived from enzyme kinetics or from competition with a known ligand. A word on the EC50: it is the concentration that produces a half-maximal response. Low values mean a more potent agent, high ones a less potent agent. On to `CCNC(=O)Cc1ccn(-c2cc(-c3c(F)cccc3F)nc3c2C(=O)NC3)n1` [I-2, 2-(1-(2-(2,6-difluorophenyl)-5-oxo-6,7-dihydro-5H-pyrrolo[3,4-b]pyridin-4-yl)-1H-pyrazol-3-yl)-N-ethylacetamide], for which the inhibition constant Ki in test [1] was 10 to 100 nM; in test [3], at least 1000 nM. In test [2], the EC50 was above 2000 nM.

In the case of `CCNC(=O)c1ccn(-c2cc(-c3c(F)cccc3F)nc3c2C(=O)NC3)n1` [I-3, 1-(2-(2,6-difluorophenyl)-5-oxo-6,7-dihydro-5H-pyrrolo[3,4-b]pyridin-4-yl)-N-ethyl-1H-pyrazole-3-carboxamide], the values for the Ki in test [1] and in test [3] were 0.1 to 10 nM and 100 to 1000 nM, respectively. For the same compound, in test [2] (Homo sapiens, PBMC), the EC50 was above 2000 nM.

Take `O=C1NCc2nc(-c3c(F)cccc3F)cc(-n3ccc(N4CCC5(CCOCC5)CC4)n3)c21` [I-9, 4-(3-(3-oxa-9-azaspiro[5.5]undecan-9-yl)-1H-pyrazol-1-yl)-2-(2,6-difluorophenyl)-6,7-dihydro-5H-pyrrolo[3,4-b]pyridin-5-one]: the Ki in test [1] fell in the range of 0.1 to 10 nM; in test [3], 100 to 1000 nM. This compound also had an EC50 in test [2] (Homo sapiens, PBMC) above 2000 nM.

Turning to `N#Cc1cccc(F)c1-c1cc(-n2ccc(C3CCOCC3)n2)c2c(n1)CNC2=O` [I-16, 3-fluoro-2-(5-oxo-4-(3-(tetrahydro-2H-pyran-4-yl)-1H-pyrazol-1-yl)-6,7-dihydro-5H-pyrrolo[3,4-b]pyridin-2-yl)benzonitrile], the Ki in test [1] is 0.1 to 10 nM; in test [3], 100 to 1000 nM. In test [2] (Homo sapiens, PBMC), this compound yielded a half-maximal effective concentration (EC50) above 2000 nM.

`CC1(C)COC(c2ccn(-c3cc(-c4c(F)cccc4C#N)nc4c3C(=O)NC4)n2)=N1` [I-60, 2-(4-(3-(4,4-dimethyl-4,5-dihydrooxazol-2-yl)-1H-pyrazol-1-yl)-5-oxo-6,7-dihydro-5H-pyrrolo[3,4-b]pyridin-2-yl)-3-fluorobenzonitrile]: the inhibition constant (Ki) in test [1] was in the range of 0.1 to 10 nM; in test [3], 10 to 100 nM. This compound yielded a half-maximal effective concentration (EC50) in test [2] (Homo sapiens, PBMC) above 2000 nM.

`N#Cc1cccc(F)c1-c1cc(-n2ccc(N3CCCC(N)C3)n2)c2c(n1)CNC2=O` (stereo not drawn) [I-68, 2-(4-(3-(3-aminopiperidin-1-yl)-1H-pyrazol-1-yl)-5-oxo-6,7-dihydro-5H-pyrrolo[3,4-b]pyridin-2-yl)-3-fluorobenzonitrile]: the values for the Ki in test [1] and in test [3] were 0.1 to 10 nM and 10 to 100 nM, respectively. Moreover, the EC50 in test [2] (Homo sapiens, PBMC) is above 2000 nM.

As to `N#Cc1cccc(F)c1-c1cc(-n2ccc(N3CCC[C@H](N)C3)n2)c2c(n1)CNC2=O` [I-74, (S)-2-(4-(3-(3-aminopiperidin-1-yl)-1H-pyrazol-1-yl)-5-oxo-6,7-dihydro-5H-pyrrolo[3,4-b]pyridin-2-yl)-3-fluorobenzonitrile], the Ki lay within 0.1 to 10 nM in test [1] and 10 to 100 nM in test [3]. Moreover, the EC50 in test [2] (Homo sapiens, PBMC) is above 2000 nM.

`N#Cc1cccc(F)c1-c1cc(-n2cc3c(n2)NCCC3)c2c(n1)CNC2=O` [I-75, 3-fluoro-2-(5-oxo-4-(4,5,6,7-tetrahydro-2H-pyrazolo[3,4-b]pyridin-2-yl)-6,7-dihydro-5H-pyrrolo[3,4-b]pyridin-2-yl)benzonitrile]: the Ki in test [1] and in test [3] was 0.1 to 10 nM each time. This compound gave an EC50 in test [2] (Homo sapiens, PBMC) above 2000 nM.

As to `N#Cc1cccc(F)c1-c1cc(-n2ccc(N3CCCC(O)(C(F)(F)F)C3)n2)c2c(n1)CNC2=O` (stereo not drawn) [I-80, 3-fluoro-2-(4-(3-(3-hydroxy-3-(trifluoromethyl)piperidin-1-yl)-1H-pyrazol-1-yl)-5-oxo-6,7-dihydro-5H-pyrrolo[3,4-b]pyridin-2-yl)benzonitrile], the values for the Ki in test [1] and in test [3] were 0.1 to 10 nM and 10 to 100 nM, respectively. Moreover, in test [2] (Homo sapiens, PBMC), the half-maximal effective concentration (EC50) was above 2000 nM.

Consider `CC1CC(O)CC(C)N1c1ccn(-c2cc(-c3c(F)cccc3C#N)nc3c2C(=O)NC3)n1` (stereo not drawn) [I-85, 3-fluoro-2-(4-(3-(4-hydroxy-2,6-dimethylpiperidin-1-yl)-1H-pyrazol-1-yl)-5-oxo-6,7-dihydro-5H-pyrrolo[3,4-b]pyridin-2-yl)benzonitrile], for which the Ki in test [1] was 10 to 100 nM; in test [3], at least 1000 nM. In addition, the EC50 in test [2] (Homo sapiens, PBMC) is above 2000 nM.

In the case of `O=C1NCc2nc(-c3c(F)cccc3F)cc(-n3ccc(N4CCOCC4CO)n3)c21` (stereo not drawn) [I-90, 2-(2,6-difluorophenyl)-4-(3-(3-(hydroxymethyl)morpholino)-1H-pyrazol-1-yl)-6,7-dihydro-5H-pyrrolo[3,4-b]pyridin-5-one], the Ki in test [1] lay within 0.1 to 10 nM; in test [3] it was 100 to 1000 nM. The EC50 in test [2] (Homo sapiens, PBMC) is above 2000 nM.

For the compound `CC1CCC(O)CN1c1ccn(-c2cc(-c3c(F)cccc3C#N)nc3c2C(=O)NC3)n1` (stereo not drawn) [I-96, 3-fluoro-2-(4-(3-(5-hydroxy-2-methylpiperidin-1-yl)-1H-pyrazol-1-yl)-5-oxo-6,7-dihydro-5H-pyrrolo[3,4-b]pyridin-2-yl)benzonitrile], the results for the Ki in test [1] and in test [3] were 0.1 to 10 nM and 10 to 100 nM, respectively. Besides, the EC50 in test [2] (Homo sapiens, PBMC) is above 2000 nM.

As to `N#Cc1cccc(F)c1-c1cc(-n2ccc(C3CCCO3)n2)c2c(n1)CNC2=O` (stereo not drawn) [I-101, 3-fluoro-2-(5-oxo-4-(3-(tetrahydrofuran-2-yl)-1H-pyrazol-1-yl)-6,7-dihydro-5H-pyrrolo[3,4-b]pyridin-2-yl)benzonitrile], the Ki lay within 0.1 to 10 nM in test [1] and 10 to 100 nM in test [3]. In addition, the concentration for a half-maximal effect (EC50) in test [2] (Homo sapiens, PBMC) was above 2000 nM.

With `N#Cc1cccc(F)c1-c1cc(-n2ccc(N3C[C@@H](O)[C@@H](O)C3)n2)c2c(n1)CNC2=O` [I-109, 2-(4-(3-((3S,4R)-3,4-dihydroxypyrrolidin-1-yl)-1H-pyrazol-1-yl)-5-oxo-6,7-dihydro-5H-pyrrolo[3,4-b]pyridin-2-yl)-3-fluorobenzonitrile], the Ki in test [1] and in test [3] was 0.1 to 10 nM each time. Moreover, in test [2] (Homo sapiens, PBMC), the EC50 is above 2000 nM.

For `CN1CC2(CCN(c3ccn(-c4cc(-c5c(F)cccc5C#N)nc5c4C(=O)NC5)n3)CC2)C1` [I-110, 3-fluoro-2-(4-(3-(2-methyl-2,7-diazaspiro[3.5]nonan-7-yl)-1H-pyrazol-1-yl)-5-oxo-6,7-dihydro-5H-pyrrolo[3,4-b]pyridin-2-yl)benzonitrile], the Ki in test [1] and in test [3] was at least 1000 nM in each case. Moreover, in test [2] (Homo sapiens, PBMC), the concentration giving a half-maximal response (EC50) was above 2000 nM.

As for `CC1(C#N)CCCN(c2ccn(-c3cc(-c4c(F)cccc4C#N)nc4c3C(=O)NC4)n2)C1` (stereo not drawn) [I-133, 1-(1-(2-(2-cyano-6-fluorophenyl)-5-oxo-6,7-dihydro-5H-pyrrolo[3,4-b]pyridin-4-yl)-1H-pyrazol-3-yl)-3-methylpiperidine-3-carbonitrile], the Ki in test [1] and in test [3] was 0.1 to 10 nM each time. Also, the EC50 in test [2] (Homo sapiens, PBMC) is above 2000 nM.

As for `C[C@@]1(O)CN(c2ccn(-c3cc(-c4c(F)cccc4C#N)nc4c3C(=O)NC4)n2)C[C@@](C)(O)C1` [I-145, 2-(4-(3-((3S,5S)-3,5-dihydroxy-3,5-dimethylpiperidin-1-yl)-1H-pyrazol-1-yl)-5-oxo-6,7-dihydro-5H-pyrrolo[3,4-b]pyridin-2-yl)-3-fluorobenzonitrile], the inhibition constant Ki in test [1] lay in the range of 0.1 to 10 nM; in test [3], 10 to 100 nM. In test [2] (Homo sapiens, PBMC), this compound displayed an EC50 above 2000 nM.

Take `N#Cc1cccc(F)c1-c1cc(-n2ccc(N3CCOC[C@H]3CO)n2)c2c(n1)CNC2=O` [I-164, (R)-3-fluoro-2-(4-(3-(3-(hydroxymethyl)morpholino)-1H-pyrazol-1-yl)-5-oxo-6,7-dihydro-5H-pyrrolo[3,4-b]pyridin-2-yl)benzonitrile]: the inhibitory constant (Ki) in test [1] and in test [3] was 0.1 to 10 nM throughout. In test [2] (Homo sapiens, PBMC), this compound had an EC50 above 2000 nM.

With `N#Cc1cccc(F)c1-c1cc(-n2ccc(N3CC[C@@H](F)[C@@H](O)C3)n2)c2c(n1)CNC2=O` [I-173, 3-fluoro-2-(4-(3-((3S,4R)-4-fluoro-3-hydroxypiperidin-1-yl)-1H-pyrazol-1-yl)-5-oxo-6,7-dihydro-5H-pyrrolo[3,4-b]pyridin-2-yl)benzonitrile], the Ki in test [1] was 0.009 to 0.1 nM; in test [3], 0.1 to 10 nM. The EC50 in test [2] (Homo sapiens, PBMC) is above 2000 nM.

Turning to `N#Cc1cccc(F)c1-c1cc(-n2cc3c(n2)CC(C(N)=O)CN3)c2c(n1)CNC2=O` (stereo not drawn) [I-180, 2-(2-(2-cyano-6-fluorophenyl)-5-oxo-6,7-dihydro-5H-pyrrolo-[3,4-b]pyridin-4-yl)-4,5,6,7-tetrahydro-2H-pyrazolo[4,3-b]pyridine-6-carboxamide], the inhibitory constant (Ki) in test [1] was in the range of 0.1 to 10 nM; in test [3], 10 to 100 nM. The EC50 in test [2] (Homo sapiens, PBMC) is above 2000 nM.

Regarding `CO[C@H]1CCN(c2ccn(-c3cc(-c4c(F)cccc4C#N)nc4c3C(=O)NC4)n2)C[C@@]1(C)O` [I-229, 3-fluoro-2-(4-(3-((3R,4S)-3-hydroxy-4-methoxy-3-methylpiperi-din-1-yl)-1H-pyrazol-1-yl)-5-oxo-6,7-dihydro-5H-pyrrolo[3,4-b]pyridin-2-yl)benzonitrile], the inhibition constant Ki was 0.009 to 0.1 nM in test [1] and 10 to 100 nM in test [3]. In test [4], the EC50 was in the range of 100 to 2000 nM.
